Structures are written as SMILES.

What is called IC50 is the concentration that gives 50% inhibition. In general, inhibition refers to the drop in the measured response relative to a control, in per cent.

The first experiment concerns the target T1, Recombinant human HSD17B13 enzyme (Homo sapiens, UniProt Q7Z5P4).
T1 sequence (Q7Z5P4 20-300): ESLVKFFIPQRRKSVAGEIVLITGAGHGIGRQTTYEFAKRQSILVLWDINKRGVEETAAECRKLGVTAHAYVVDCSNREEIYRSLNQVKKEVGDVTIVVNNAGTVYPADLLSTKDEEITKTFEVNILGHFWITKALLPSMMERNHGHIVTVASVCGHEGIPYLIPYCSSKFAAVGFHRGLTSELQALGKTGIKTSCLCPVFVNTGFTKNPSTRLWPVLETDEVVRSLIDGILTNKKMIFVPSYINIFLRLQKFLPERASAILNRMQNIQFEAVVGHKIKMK
Put plainly: HSD17b13 NAD(P)H-Glo biochemical assay. Particulars: 50 uM estradiol, 1 mM NAD+, NAD(P)H-Glo luminescence; read-out: HSD17β13 IC50. In short, it runs like this: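 Recombinant human HSD17B13 in 20 mM Tris pH7.4 with 0.002% Tween-20 and 0.02% BSA was preincubated with inhibitor for 20 minutes at RT. The reaction ran 3 hours at 37° C with 50 uM estradiol and 1 mM NAD+ (final). NADH formed was detected by NAD(P)H-Glo luminescence after 1 hour at RT.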
`Cn1nc(-c2cc(C(F)(F)F)c(F)c(O)c2F)c2cnc(N3CCC(O)(C4CC4)CC3)nc21` [Compound 18.93, 4-Cyclopropyl-1-(3-(2,4-difluoro-3-hydroxy-5-(trifluoromethyl)phenyl)-1-methyl-1H-pyrazolo[3,4-d]pyrimidin-6-y1)piperidin-4-ol]: the IC50 was less than 100 nM.
`CN(C)CCC1CN(c2ncc3c(-c4cc(C(F)(F)F)c(F)c(O)c4F)nn(C)c3n2)CCO1` (stereo not drawn) [Compound 18.39, 3-(6-(2-(2-(Dimethylamino)ethyl)morpholino)-1-methyl-1H-pyrazolo[3,4-d]pyrimidin-3-y1)-2,6-difluoro-5-(trifluoromethyl)phenol]: the half-inhibitory concentration (IC50) lay within 100 to 1000 nM.
On the same count and under the same terms, as for `CN1CCN(c2cc3c(cn2)c(-c2cc(C(F)(F)F)c(F)c(O)c2F)nn3C)C(C2CCOCC2)C1` (stereo not drawn) [Compound 9.128, 2,6-Difluoro-3-(1-methyl-6-(4-methyl-2-(tetrahydro-2H-pyran-4-yl)piperazin-1-yl)-1H-pyrazolo[4,3-c]pyridin-3-yl)-5-(trifluoromethyl)phenol], the figure is less than 100 nM; as for `CS(=O)(=O)C1CN(c2cc3nc(-c4cc(O)c(F)c(F)c4)oc3cc2Cl)C1` [Compound 5.01, 5-(6-Chloro-5-(3-(methylsulfonyl)azetidine-1-yl)benzo[d]oxazol-2-yl)-2,3-difluorophenol], 100 to 1000 nM; as for `Cc1nnc(C2CN(c3ncc4c(-c5cc(C(F)(F)F)c(F)c(O)c5F)nn(C)c4n3)CCO2)o1` (stereo not drawn) [Compound 18.52, 2,6-Difluoro-3-(1-methyl-6-(2-(5-methyl-1,3,4-oxadiazol-2-y1)morpholino)-1H-pyrazolo[3,4-d]pyrimidin-3-y1)-5-(trifluoromethyl)phenol], 100 to 1000 nM.
The same measure, in the same setting: as for `CC(C)C1COCCN1c1cc2c(cn1)c(-c1cc(C(F)(F)F)c(F)c(O)c1F)nn2C` (stereo not drawn) [Compound 9.52, 2,6-Difluoro-3-(6-(3-isopropylmorpholino)-1-methyl-1H-pyrazolo[4,3-c]pyridin-3-yl)-5-(trifluoromethyl)phenol], the figure is less than 100 nM.
Still for that read-out and setting: as for `CCN1CCN(c2cc3c(cn2)c(-c2cc(C(F)(F)F)c(F)c(O)c2F)nn3C)C(=O)C1` [Compound 9.113, 1-(3-(2,4-Difluoro-3-hydroxy-5-(trifluoromethyl)phenyl)-1-methyl-1H-pyrazolo[4,3-c]pyridin-6-yl)-4-ethylpiperazin-2-one], the figure is 100 to 1000 nM.
For `CN1CCN(c2ncc3c(-c4cc(C(F)(F)F)c(F)c(O)c4F)nn(C)c3n2)CC1c1ncc[nH]1` (stereo not drawn) [Compound 18.101, 3-(6-(3-(1H-Imidazol-2-yl)-4-methylpiperazin-1-y1)-1-methyl-1H-pyrazolo[3,4-d]pyrimidin-3-yl)-2,6-difluoro-5-(trifluoromethyl)phenol], the IC50 was 100 to 1000 nM.
The same measure, in the same setting: the figure for `Cn1nc(-c2cc(C(F)(F)F)c(F)c(O)c2F)c2cnc(N3CCOCC34CC4)cc21` [Compound 8, 2,6-Difluoro-3-(1-methyl-6-(7-oxa-4-azaspiro[2.5]octan-4-yl)-1H-pyrazolo[4,3-c]pyridin-3-yl)-5-trifluoromethyl phenol] is less than 100 nM; for `Cn1nc(-c2cc(C(F)(F)F)c(F)c(O)c2F)c2ccc(N3CCN(S(C)(=O)=O)CC3)nc21` [Compound 12.02, 2,6-Difluoro-3-(1-methyl-6-(4-(methylsulfonyl)piperazin-1-yl)-1H-pyrazolo[3,4-b]pyridin-3-yl)-5-(trifluoromethyl)phenol] it is less than 100 nM; for `Cn1nc(-c2cc(C(F)(F)F)c(F)c(O)c2F)c2cnc(N3CCN(S(C)(=O)=O)CC3)nc21` [Compound 12.01, 2,6-Difluoro-3-(1-methyl-6-(4-(methylsulfonyl)piperazin-1-yl)-1H-pyrazolo[3,4-d]pyrimidin-3-yl)-5-(trifluoromethyl)phenol] it is less than 100 nM.
On the same count and under the same terms, the figure for `Cn1nc(-c2cc(C(F)(F)F)c(F)c(O)c2F)c2cnc(N3CCN(S(C)(=O)=O)C4(CCCCC4)C3)nc21` [Compound 18.84, 2,6-Difluoro-3-(1-methyl-6-(1-(methylsulfony1)-1,4-diazaspiro[5.5]undecan-4-yl)-1H-pyrazolo[3,4-d]pyrimidin-3-y1)-5-(trifluoromethyl)phenol] is less than 100 nM; for `CN(c1ncc2c(-c3cc(C(F)(F)F)c(F)c(O)c3F)nn(C)c2n1)C1CCOCC1` [Compound 9.39, 2,6-Difluoro-3-(1-methyl-6-(methyl(tetrahydro-2H-pyran-4-yl)amino)-1H-pyrazolo[3,4-d]pyrimidin-3-yl)-5-(trifluoromethyl)phenol] it is less than 100 nM.
As to `CN1CCN(c2cc3c(cn2)c(-c2cc(C(F)(F)F)c(F)c(O)c2F)nn3C)CC1=O` [Compound 9.68, 4-(3-(2,4-Difluoro-3-hydroxy-5-(trifluoromethyl)phenyl)-1-methyl-1H-pyrazolo[4,3-c]pyridin-6-yl)-1-methylpiperazin-2-one], the IC50 is less than 100 nM.
Still for that read-out and setting: as for `COCCn1nc(-c2cc(C(F)(F)F)c(F)c(O)c2F)c2ccc(N3CCOCC34CC4)nc21` [Compound 9.72, 2,6-Difluoro-3-(1-(2-methoxyethyl)-6-(7-oxa-4-azaspiro[2.5]octan-4-yl)-1H-pyrazolo[3,4-b]pyridin-3-yl)-5-(trifluoromethyl)phenol], the figure is less than 100 nM; as for `CO[C@H]1C[C@H](NC(=O)c2ccc3oc(-c4cc(C(F)(F)F)c(F)c(O)c4F)nc3c2)C1` [Compound 1.16, 2-(2,4-Difluoro-3-hydroxy-5-(trifluoromethyl)phenyl)-N-(trans-3-methoxycyclobutyl)benzo[d]oxazole-5-carboxamide], 100 to 1000 nM.
Still for that read-out and setting: as for `Oc1c(F)c(-c2nn(C3CCCOC3)c3nc(N4CCOCC45CC5)ccc23)cc(C(F)(F)F)c1F` (stereo not drawn) [Compound 9.71, 3-(6-(7-Oxa-4-azaspiro[2.5]octan-4-yl)-1-(tetrahydro-2H-pyran-3-yl)-1H-pyrazolo[3,4-b]pyridin-3-yl)-2,6-difluoro-5-(trifluoromethyl)phenol], the figure is 100 to 1000 nM.
On to `Cn1nc(-c2cc(C(F)(F)F)c(F)c(O)c2F)c2cnc(N3CCCC(c4ccncn4)C3)nc21` (stereo not drawn) [Compound 18.71, 2,6-Difluoro-3-(1-methyl-6-(3-(pyrimidin-4-y1)piperidin-1-yl)-1H-pyrazolo[3,4-d]pyrimidin-3-y1)-5-(trifluoromethyl)phenol], for which the 50% inhibitory concentration (IC50) was less than 100 nM.
Regarding `CN1CCN(c2cc3c(cn2)c(-c2cc(C(F)(F)F)c(F)c(O)c2F)nn3C)C2(CC2)C1=O` [Compound 9.112, 4-(3-(2,4-Difluoro-3-hydroxy-5-(trifluoromethyl)phenyl)-1-methyl-1H-pyrazolo[4,3-c]pyridin-6-yl)-7-methyl-4,7-diazaspiro [2.5]octan-8-one], the half-inhibitory concentration (IC50) is less than 100 nM.

Still in this experiment, the particulars now being: at 10 uM compound; read-out: HSD17β13 % inhibition at 10 uM.
Turning to `CN(c1cc2c(nn1)c(-c1cc(C(F)(F)F)c(F)c(O)c1O)nn2C)C1CCOCC1` [Compound 9.141, 3-Fluoro-6-(1-methyl-6-(methyl(tetrahydro-2H-pyran-4-yl)amino)-1H-pyrazolo[4,3-c]pyridazin-3-yl)-4-(trifluoromethyl)benzene-1,2-diol], the inhibition at 10 µM turned out to be 20%.

The same experiment, now with this note: at 30 uM compound; read-out: HSD17β13 % inhibition at 30 uM.
Turning to `O=C(NC1CCC1)c1ccc2oc(-c3cc(O)cc(C(F)(F)F)c3F)nc2c1` [Compound 23, N-Cyclobuty1-2-(2-fluoro-5-hydroxy-3-(trifluoromethyl)phenyl)benzo[d] oxazole-5-carboxamide], the inhibition at 30 µM was 20%.

The values are drawn from patent US20240083861A1, “HSD17B13 INHIBITORS AND USES THEREOF” (FL2022-001, Inc., priority 2020, published 2024).
